The record followed here is patent EP4349409A1, “COMPOUNDS FOR THE MANAGEMENT OF CELL STEMNESS AND INVASION IN CANCER AND RELATED DISEASES” (Instituto Biomar S.A., priority 2022, dated 2024).

In assay [1] the test system is P1-TP73 promoter. Put plainly: P1-p73-Fluc-DsRed reporter screening of natural compounds in U373 cells. The conditions noted are these: U373, 8 µg/ml, 48 h after treatment. The class given is cell-based, human. How it is done:
The conventional GB cell line U373 was used to perform a low-throughput chemical screen to identify P1-TP73-promoter regulators from a panel of 51 natural compounds with novel chemical structures (BMT-1 to BMT-51). Cells were seeded on black microplates and 24 h later they were transfected with 1 µg of P1-p73-Fluc-DsRed plasmid using Lipofectamine 3000™ reagent (ThermoFisher) following the manufacturer's instructions. Six hours later, transfected cells were treated either with 8 µg/ml of any of the tested compounds or with the drugs used as first line glioblastoma treatment: the methylating agent temozolomide (TMZ) and the chloroethyl-derivative of nitrosourea carmustine (BCNU), or equivalent volumes of DMSO. […] The compound BMT18 was also found to have autofluorescence.

The subject of assay [2] is G179. Put plainly: MTT-based cytotoxicity assay, G179. The format is cell-based. The conditions noted are these: G179, 72 h after treatment.
Assay [3] has as its system G144 cells. Put plainly: 3D spheroid cell-invasion assay in Matrigel, G144. The class given is cell-based, human. As to conditions: 24 h. How it is done:
A hallmark of glioblastoma cell infiltration through a 3D environment is the extension of long, thin polarized membrane extensions that explore and penetrate the surrounding environment. The 3D spheroid cell-invasion model consists in generating cell spheroids by suspension culture that are subsequently embedded in a 3D matrix. G144 cells were seeded on non-adherent conditions (without laminin coating) at a cell concentration of 40,000 cells/ml. After 8 days, spheres were embedded in a 2:1 mixture of Matrigel and growth media. Matrigel mix was let to polymerize at 37°C for 30 minutes, and then it was covered with growth media. Migration was monitored by phase-contrast microscopy for 24 h and the area of each sphere at the initial and final time points was measured using the ImageJ software, in order to calculate the ratio between both areas (Figure 10D, Y axis).

Assay [4] deals with TAp73. Put plainly: Western blot of endogenous TAp73 protein in glioblastoma stem cells G144 and G179. The class given is cell-based, human. As to conditions: G144 and G179, 72 h; BMT9 2.25 µM, TMZ 350 µM, BCNU 150 µM. How it is done:
To specifically address BMT9 effect on endogenous TAp73 protein levels, we performed a Western blot analysis using an anti-TA-specific antibody. Cells were treated for 72 h either with a low dose of BMT9 (2.25 µM), or with TMZ and BCNU at the standard concentrations used in other articles (350 µM and 150 µM, respectively). Protein extracts were obtained and analyzed by Western blot (Figure 4B-C) and densitometric quantification of the autoradiographies was carried out. The ratio of TAp73/GAPDH band intensity was calculated and protein expression levels relative to non-treated (NT) cells were represented (Y axis).
In general terms: Immunoblotting shows a protein as a band on a membrane.

Assay [5] relates to T98G. Put plainly: MTT-based cytotoxicity assay, T98G. The format is cell-based. The conditions noted are these: Homo sapiens, 72 h. How it is done: (§1) A dose-response analysis of BMT9 (concentrations ranging from 4.5 µM-18 µM), BCNU (from 150 µM-500 µM) and TMZ (350 µM-700 µM) was performed in two conventional glioblastoma cell lines (T98G, U373) and the GNS cell line G144 by MTT-based cytotoxicity assays (Figure 5A-D). Cells were seeded on p96-well plates and treated with the different compounds for 72 h. Then, the MTT reagent (3-(4,5-Dimethyl-2-thiazolyl)-2,5-diphenyl-2H-tetrazolium bromide diluted in PBS to a concentration of 1mg/ml), was added to each well to a final concentration of 0.33mg/ml, and incubated for 3 h at 37°C. After that, the media was removed, and formazan crystals were solubilized with DMSO. Absorbance was measured at 560 nm using a "Synergy HT" plate reader (Biotek). In the graphs, the Y axis represents the percentage of cell viability relative to non-treated cells. The IC50, when reached are marked by a rectangle. DMSO treatment had no effect on cell viability.

Assay [6] concerns G144-GNSC cells. Put plainly: Transcriptome comparison (DESeq2) of G144-GNSC cells after treatment. The format is cell-based, human. As to conditions: DESeq2, p-adj<0.01, treated vs non-treated G144-GNSC. An excerpt: Finally, to elucidate the molecular basis of BMT9 effect on the stemness potential of the GNSCs, we compared the transcriptome of non-treated G144-GNSC cells with those after BMT9 treatment. The DESeq2 analysis identified 6163 differentially expressed genes (DEGs) with a p-adj<0.01. […] Among the found DEGs we found GSC markers like PROM1(CD133), LGR5, or SOX1 and SOX4, as well as key regulators involved in maintenance of the cancer cell stemness state like SOX9 (Wang et al., 2018)(Aldaz et al., 2020), CDC20 (Gujar et al., 2016) or AURKA, known to govern self-renewal capacity in glioma-initiating cells via stabilization/activation of β-catenin/Wnt signaling (Xia et al., 2013) and proposed, together with CCNA2, and TPX2, as ideal drug targets in GBM (Du et al., 2020). Table 3. Correlation of GNSCs transcriptomic profiles after BMT9 treatment with published gene signatures of stemness.

For assay [7], the system named is G144 cells. Put plainly: Proliferation rate analysis by p-His-3 immunostaining in G144 cells. The conditions noted are these: G144, 4.5 µM, 72 h (data not shown). The format is cell-based, human. An excerpt:
It is noteworthy that G144 cells proliferate very slowly and, at maintenance culture conditions, about 90% of the cells are in G1 phase of the cell cycle (data not shown).

Assay [8] concerns G144. Put plainly: MTT-based cytotoxicity assay, G144. The format is cell-based, human. The conditions noted are these: for IC50: G144, MTT, 72 h. How it is done:
as §1
(§2) Previous studies have reported that the molecular signature of the GNSC G144 cell line corresponds to a 'proneural' subtype of GB with NSC features (Pollard et al., 2009; Danovi et al., 2013). Thus, to test BMT9 specificity we compared cellular viability when treating CD133-positive cells (either GNSCs or normal human fetal neural stem cells-NSC) versus CD133-negative human embryonic fibroblast (HEFs) (Figure 8A). MTT-based cytotoxicity assay (Figure 7B-D) were performed as previously described.
(§3) While the first line therapy of gliomas has proven its effectiveness and improved clinical outcomes, acquired chemoresistance to alkylating agents has been identified as a major cause of treatment failure (Sarkaria et al., 2008). In a murine model of GB, long-term treatment with subtoxic TMZ doses enriched the side population of cancer stem cells, increasing the tumor aggressiveness (Bleau et al., 2009). Thus, we generated TMZ-resistant G144-clones that were selected upon treatment with TMZ either at 500 µM or 700 µM for several months (R500 and R700, respectively). The obtained clones maintained CD133 stem marker expression (Figure 9A). We then analyzed BMT9 dose-dependent effect on cell viability, by MTT assay, comparing the resistant clones to parental cells.
(In general: Formazan colour is commonly taken as a measure of viable cells.)

Assay [9] has as its system G144 R700. Put plainly: MTT assay, TMZ-resistant clone G144 R700. The conditions noted are these: Homo sapiens, 72 hours. The format is cell-based.
Description: as §3

For assay [10], the system named is U373. Put plainly: MTT-based cytotoxicity assay, U373. The format is cell-based. As to conditions: Homo sapiens, U373 MG, 72 h. How it is done: as §1
In assay [11] the test system is normal human fetal neural stem cells-NSC. Put plainly: Long term MTT viability, normal neural stem cells. The format is cell-based. As to conditions: CD133-positive NSC, 1.125-4.5 µM. How it is done:
as §2

For `C=C1C2CCC(C)(C3COc4c(C)c(OC)c5c(c4C3O)C(O)OC5=O)C1CCC2(C)C` (stereo not drawn) [BMT9], in assay [1], the “P1-TP73-promoter activity (fluorescence normalized to DMSO exposed cells)” value was “strongest and most reproducible repressive effect”. Also, the “pre-selection: modulatory effect of a 2-fold fluorescence increase or a 0.5-fold reduction” value in assay [1] (direction per compound not given) is listed as “pre-selected”. The “concentration as low as which still reduced viability” value in assay [2] stood at 6.75 µM; in [8] (G144, 72 h after treatment), 2.25 µM. The “invasion of cells within the matrix surrounding the spheres” value in assay [3] is recorded as “significantly impaired the invasion of cells”. Further, in assay [4], the “endogenous TAp73 protein levels (TAp73/GAPDH)” value was “reduced effectively TAp73 expression”. Besides, the 50% inhibitory concentration (IC50) (as a rule, the midpoint of a concentration-inhibition curve) in [5] was > 9 µM; in assay [8], 4.5 µM; in assay [8] (Homo sapiens) it was < 4.5 µM; in assay [9] it was 3.37 to 4.5 µM; in assay [10], 18 µM. In addition, the “differentially expressed genes (DEGs)” value in [6] is given as 6163. The “percentage of cells in mitosis” value in assay [7] is listed as 0.1%. The “cellular viability in long term culture” value was “stronger effect against GNSC” in assay [8] (GNSC (G144, CD133-positive), 1.125-4.5 µM) and “affected” in assay [11].
